Relative viability data for one cell line are collected here from the supplement of paper PMC10307832.

What all share (assay): relative viability (nuclei count vs DMSO), 5 days (fraction); higher = more cells survive
Compound in experiment [1]: CCC1=CN=CN=C1N2CCN(CC2)CC3=NC4=C(N3)C=C(C=C4)C(F)(F)F + C[C@]1(O)C[C@@H](c2nc(-c3ccc4ccc(-c5ccccc5)nc4c3)c3c(N)nccn32)C1 [Linsitinib] (partner 1 µM)
In a few lines: (§1)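 Cells from lung cancer lines were seeded into 1536-well plates and, one day later, dosed by pin tool. Treatments were either a single drug or a fixed dose of an anchor drug with five library-drug doses (not always all listed) in √10 steps. After 5 days, nuclei were stained in a one-step fixation (final 0.05% Triton X-100, 1% formaldehyde, 1 ug/ml Hoechst) and counted on 4× images, and relative viability is the treated-to-vehicle nuclei ratio, as the median of duplicate plates.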

Compound in experiment [2]: N=C1NC(=O)/C(=C/c2ccc(O)cc2)S1 [Mirin] + N=C(N)NC(=N)NCCc1ccccc1 [Phenformin] (partner 250 µM)
Summed up: as §1

Compound in experiment [3]: N=C1NC(=O)/C(=C/c2ccc(O)cc2)S1 [Mirin] + COc1cccc2cc(-c3nc([C@H]4CC[C@H](C(=O)O)CC4)n4ncnc(N)c34)[nH]c12 [OSI-027] (partner 0.5 µM)
Summed up:
as §1

Compound in experiment [4]: CCn1c(-c2nonc2N)nc2cnc(Oc3cccc(NC(=O)c4ccc(OCCN5CCOCC5)cc4)c3)cc21 + CS(=O)(=O)N1CCN(Cc2cc3nc(-c4cccc5[nH]ncc45)nc(N4CCOCC4)c3s2)CC1 [Pictilisib] (partner 1 µM)
In a few lines: as §1

For UMC-11, the relative viability in experiment [1] (first compound 0.04 µM) came out at 1.03; in experiment [1] (first compound 0.1265 µM) it was 1.02; in experiment [1] (first compound 0.4 µM), 1.03; in experiment [1] (first compound 1.265 µM), 0.958; in experiment [1] (first compound 4 µM) it was 0.944; in experiment [2] (first compound 0.25 µM) it was 0.351. Moreover, the relative viability in experiment [2] (first compound 0.7906 µM) is 0.272; in experiment [2] (first compound 2.5 µM), 0.334; in experiment [2] (first compound 7.906 µM), 0.32; in experiment [2] (first compound 25 µM), 0.236; in experiment [3] (first compound 0.25 µM), 0.477; in experiment [3] (first compound 0.7906 µM), 0.483. In addition, the relative viability in experiment [3] (first compound 2.5 µM) is 0.461; in experiment [3] (first compound 7.906 µM) it was 0.396; in experiment [3] (first compound 25 µM), 0.293; in experiment [4] (first compound 0.04 µM), 0.908; in experiment [4] (first compound 0.1265 µM) it was 0.751; in experiment [4] (first compound 0.4 µM), 0.464. The relative viability in experiment [4] (first compound 1.265 µM) was 0.241; in experiment [4] (first compound 4 µM) it was 0.188.
